pIC50: −log10 of the molar value. Where two headings read alike, the source gives them in different places.
Assays:
[1] = test system: Phosphorylation of ERK1/2 in MIA PaCa-2 cells; test: Phospho-ERK1/2 MSD assay in MIA PaCa-2 cells; assay type: cell-based
Outline: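 MSD electrochemiluminescence readout of phospho-ERK1/2 in whole-cell lysates, IC50 by 4-parameter logistic fit. Compound titrations were applied for 2 or 4 h at 37 °C, 5% CO2, followed by 10 ng/mL EGF stimulation for 10 min before lysis.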

[2] = biological target: GDP-bound KRAS protein (aa 1-169), containing both G12C and C118A amino acid substitutions (Homo sapiens, UniProt P01116, C118A/G12C); test: Coupled nucleotide exchange assay (SOS-mediated, AlphaScreen); assay type: biochemical; conditions: for Coupled exchange IC50 (5 min): 5 min compound pre-incubation
[3] = Homo sapiens, MIA PaCa-2, 2 h, read-out: p-ERK IC50 (2 h; MIA PaCa-2), 2 h compound treatment
[4] = read-out: p-ERK IC50 (2 h; MIA PaCa-2), 2 h compound treatment

Chain of GDP-bound KRAS protein (aa 1-169), containing both G12C and C118A amino acid substitutions (P01116 1-169 isoform P01116-2 G12C/C118A): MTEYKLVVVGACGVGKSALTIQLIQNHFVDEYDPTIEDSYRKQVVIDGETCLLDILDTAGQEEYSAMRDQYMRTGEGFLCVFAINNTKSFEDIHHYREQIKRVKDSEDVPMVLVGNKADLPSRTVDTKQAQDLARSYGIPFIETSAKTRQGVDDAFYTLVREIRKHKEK

pIC50 [1, 3]	Coupled exchange IC50 (5 min) [2]	pIC50 [1, 4]	pIC50 ([1]; read-out: p-ERK IC50 (4 h; MIA PaCa-2), 4 h compound treatment)	Coupled exchange IC50 (2 h) ([2]; 2 h compound pre-incubation)	Structure (SMILES)
5.70	0.072 | nda μM				C=CC(=O)N1CCN(c2nc(=O)n(-c3c(C)ccnc3C(C)C)c3nc(-c4cc(O)cc(Cl)c4Cl)c(F)cc23)[C@@H](C)C1 [Example 58-7, 7-(2,3-dichloro-5-hydroxyphenyl)-6-fluoro-1-(4-methyl-2-(2-propanyl)-3-pyridinyl)-4-((2S)-2-methyl-4-(2-propenoyl)-1-piperazinyl)pyrido[2,3-d]pyrimidin-2(1H)-one]
7.26	0.081 | nda μM				C=CC(=O)N1C[C@H](C)N(c2nc(=O)n(-c3c(C)ccnc3C(C)C)c3nc(-c4ccccc4F)c(F)cc23)[C@@H](C)C1 (atropisomer, axis not shown; (M)) [Example 72-14, (M)-4-((2S,6S)-2,6-dimethyl-4-(2-propenoyl)-1-piperazinyl)-6-fluoro-7-(2-fluorophenyl)-1-(4-methyl-2-(2-propanyl)-3-pyridinyl)pyrido[2,3-d]pyrimidin-2(1H)-one]
6.24	0.572 | nda μM				C=CC(=O)N1CCN(c2nc(=O)n(-c3ccccc3C(C)(C)C)c3nc(-c4c(O)cccc4F)c(F)cc23)[C@@H](C)C1 (single isomer, unassigned) [Example 58-1-2]
5.58	0.349 | nda μM				C=CC(=O)N1CCN(c2nc(=O)n(-c3c(C)ccnc3C(C)C)c3nc(-c4ccccc4F)c(Cl)cc23)C(CF)C1 (single isomer, unassigned) [Example 78-5, (M)-6-chloro-4-(2-(fluoromethyl)-4-(2-propenoyl)-1-piperazinyl)-7-(2-fluorophenyl)-1-(4-methyl-2-(2-propanyl)-3-pyridinyl)pyrido[2,3-d]pyrimidin-2(1H)-one]
7.09	0.087 | nda μM				C=CC(=O)N1CCN(c2nc(=O)n(-c3c(C(C)C)ccnc3C)c3nc(-c4ccccc4F)c(Cl)cc23)[C@@H](C)C1 [Example 54-18, 6-chloro-7-(2-fluorophenyl)-1-(2-methyl-4-(2-propanyl)-3-pyridinyl)-4-((2S)-2-methyl-4-(2-propenoyl)-1-piperazinyl) pyrido[2,3-d]pyrimidin-2(1H)-one]
	2.43 | nda μM	6.40			C=CC(=O)N1CCN(c2nc(=O)n(-c3c(C)ccnc3C(C)C)c3nc(-c4ccccc4F)c(C)nc23)[C@@H](C)C1 (single isomer, unassigned) [Example 143-2]
6.61	0.071 | nda μM				C=CC(=O)N1CCN(c2nc(=O)n(-c3ccccc3C(C)C)c3cc(-c4ccccc4F)c(Cl)nc23)[C@@H](C)C1 (single isomer, unassigned) [Example 110-2]
6.51	0.493 | nda μM				C=CC(=O)N1CCN(c2nc(=O)n(-c3c(C)ccnc3C(C)C)c3nc(-c4c(O)cccc4F)c(F)cc23)C[C@H]1C (single isomer, unassigned) [Example 75-2]
6.90	0.075 | nda μM				C=CC(=O)N1CCN(c2nc(=O)n(-c3cccnc3C(C)(C)C)c3nc(-c4ccccc4F)c(Cl)cc23)[C@@H](C)C1 (single isomer, unassigned) [Example 54-112-1]
6.25	0.315 | nda μM				C=CC(=O)N1CCN(c2nc(=O)n(-c3c(C)ccnc3C(C)C)c3nc(-c4cc(OC)c(F)cc4F)c(F)cc23)[C@@H](C)C1 (atropisomer, axis not shown; (M)) [Example 72-6, (M)-7-(2,4-difluoro-5-methoxyphenyl)-6-fluoro-1-(4-methyl)-2-(2-propanyl)-3-pyridinyl)-4-((2S)-(2-methyl-4-(2-propenoyl)-1-piperazinyl)pyrido[2,3-d]pyrimidin-2(1H)-one]
7.60	0.117 | nda μM				C=CC(=O)N1CCN(c2nc(=O)n(-c3c(C(C)C)nc(N)nc3C(C)C)c3nc(-c4ccccc4F)c(Cl)cc23)[C@@H](C)C1 [Example 139, 1-(2-Amino-4,6-di(2-propanyl)-5-pyrimidinyl)-6-chloro-7-(2-fluorophenyl)-4-((2S)-2-methyl-4-(2-propenoyl)-1-piperazinyl)pyrido[2,3-d]pyrimidin-2(1H)-one]
6.64	0.184 | nda μM				C=CC(=O)N1CCN(c2nc(=O)n(-c3c(C)ccnc3C(C)C)c3nc(-c4cc(C#N)ccc4F)c(Cl)cc23)[C@@H](C)C1 (atropisomer, axis not shown; (M)) [Example 73-5, (M)-3-(6-chloro-1-(4-methyl-2-(2-propanyl)-3-pyridinyl)-4-((2S)-2-methyl-4-(2-propenoyl)-1-piperazinyl)-2-oxo-1,2-dihydropyrido[2,3-d]pyrimidin-7-yl)-4-fluorobenzonitrile]
	0.097 | nda μM	6.84			C=CC(=O)N1CCN(c2nc(=O)n(-c3c(C(F)(F)F)ccnc3C(C)C)c3nc(-c4c(O)cccc4F)c(F)cc23)[C@@H](C)C1 (single isomer, unassigned) [Example 58-3-1]
6.74	0.261 | nda μM				C=CC(=O)N1CCN(c2nc(=O)n(-c3c(C(F)(F)F)ccnc3C(C)C)c3nc(-c4c(O)cccc4F)c(F)cc23)[C@@H](C)C1 [Example 58-3, 6-fluoro-7-(2-fluoro-6-hydroxyphenyl)-4-((2S)-2-methyl-4-(2-propenoyl)-1-piperazinyl)-1-(2-(2-propanyl)-4-(trifluoromethyl)-3-pyridinyl)pyrido[2,3-d]pyrimidin-2(1H)-one]
	0.151 µM		6.95	175 nM	C=CC(=O)N1CCN(c2nc(=O)n(-c3ccccc3C(C)C)c3c(C)c(-c4c(O)cccc4F)c(Cl)cc23)[C@@H](C)C1 (single isomer, unassigned) [Example 90-2]
6.11	0.583 | nda μM				C=CC(=O)N1CCN(c2nc(=O)n(-c3c(C)noc3C(C)C)c3nc(-c4ccc(F)cc4F)c(Cl)cc23)[C@@H](C)C1 [Example 55-12, 6-chloro-7-(2,4-difuorophenyl)-1-(3-methyl-5-(2-propanyl)-1,2-oxazol-4-yl)-4-((2S)-2-methyl-4-(2-propenoyl)-1-piperazinyl)pyrido[2,3-d]pyrimidin-2(1H)-one]
7.08	0.125 | nda μM				C=CC(=O)N1CCN(c2nc(=O)n(-c3ccccc3C(C)C)c3nc(-c4cc(N)ccc4Br)c(Cl)cc23)[C@@H](C)C1 [Example 56-6, 7-(5-amino-2-bromophenyl)-6-chloro-4-((2S)-2-methyl-4-(2-propenoyl)-1-piperazinyl)-1-(2-(2-propanyl)phenyl)pyrido[2,3-d]pyrimidin-2(1H)-one]
6.26	0.385 | nda μM				C=CC(=O)N1CCN(c2nc(=O)n(-c3c(C)ccnc3C(C)C)c3nc(-c4cc(C(=O)NC5CC5)ccc4F)c(Cl)cc23)[C@@H](C)C1 (atropisomer, axis not shown; (M)) [Example 73-10, (M)-3-(6-chloro-1-(4-methyl-2-(2-propanyl)-3-pyridinyl)-4-((2S)-2-methyl-4-(2-propenoyl)-1-piperazinyl)-2-oxo-1,2-dihydropyrido[2,3-d]pyrimidin-7-yl)-N-cyclopropyl-4-fluorobenzamide]

— patent publication US11090304B2 (Amgen Inc., priority 2018, dated 2021)
